According to US5663186A, “Treatment of atherosclerosis with angiotensin II receptor blocking imidazoles” (Merck & Co., Inc., priority 1995, dated 1997):
Counter-ions that a name gives are not always drawn.

Columns and labels:
[1] = tested on: conscious dogs; experiment: Hypotensive effects and inhibition of AII pressor response before and after furosemide in conscious dogs; assay type: in vivo, dog
[2] = tested on: AII; details: cited from earlier work
[3] = tested on: dogs; details: cited from earlier work
[4] = tested on: Renal Hypertensives Rats; experiment: Antihypertensive effects in renal hypertensive rats (left renal artery ligation); assay type: in vivo, rat
Protocol: This procedure increases blood pressure by increasing renin production with consequent elevation of AII levels. Compounds are administered orally at 100 mg/kg and/or intravenously via a cannula in the jugular vein at 10 mg/kg. Arterial blood pressure is continuously measured directly through a carotid artery cannula and recorded using a pressure transducer and a polygraph. Blood pressure levels after treatment are compared to pretreatment levels to determine the antihypertensive effects of the compounds (See Table 1).
Compound listed in Table 2 was tested in the same manner as described for Table 1, except that in the test for antihypertensive effects in renal hypertensive rats, the compounds were administered orally at 30 mg/kg and intravenously at 3 mg/kg.

Compound: CCCCc1nc(Cl)c(CO)n1Cc1ccc(-c2ccccc2-c2nnn[nH]2)cc1 [2-butyl-4-chloro-1-[2'-(1H-tetrazol-5-yl)biphenyl-4-yl)methyl]-5-hydroxymethylimidazole sodium salt]
- inhibition of pressor response to AII after furosemide ([1]; furosemide-treated dogs, cumulative iv): inhibited the pressor response to AII at the two higher doses
- decrease in blood pressure after furosemide ([1]; furosemide-treated dogs, cumulative iv 0.3 to 3 mg/kg): significant decrease in blood pressure in a dose-dependent manner
- blood pressure lowering ([1]; normotensive conscious dogs (n=4), cumulative iv 0.3 to 3 mg/kg, before furosemide): did not lower blood pressure
- inhibition of pressor response to AII ([1]; normotensive conscious dogs, cumulative iv 0.3 to 3 mg/kg, AII 0.1 μg/kg iv, 10 min post dose, before furosemide): effective in inhibiting the pressor response to AII

Compound: CNCC(=O)N[C@@H](CCCN=C(N)N)C(=O)N[C@H](C(=O)N[C@@H](Cc1ccc(O)cc1)C(=O)N[C@H](C(=O)N[C@@H](Cc1cnc[nH]1)C(=O)N1CCC[C@H]1C(=O)N[C@@H](C)C(=O)O)C(C)C)C(C)C [Saralasin, [Sar^1, Ala^8] AII]
- lowering of arterial pressure ([2]; mammals and man, when the (elevated) pressure is dependent on circulating AII): lower arterial pressure in mammals and man
- oral effectiveness ([2]; oral doses): oral doses being ineffective
- duration of pharmacological effects ([2]; parenteral administration): relatively short-lasting
- antagonism of the actions of AII ([2]; pithed rats): one of the most potent competitive antagonists of the actions of AII
- agonistic (pressor) effects ([2]; when the pressure is not sustained by AII): generally elicits pressor effects when the pressure is not sustained by AII
- effect on renal vasoconstrictor effect of indomethacin and meclofenamate ([3]; dogs): inhibit the renal vasoconstrictor effect of indomethacin and meclofenamate

Compound: C[C@H](CS)C(=O)N1CCC[C@H]1C(=O)O [captopril]
- effect on renal vasoconstrictor effect of indomethacin ([3]; dogs with non-hypotensive hemorrhage): reverse the renal vasoconstrictor effect of indomethacin

Compound: CCCCc1nc(Cl)c(C(=O)O)n1Cc1ccc(-c2ccccc2-c2nnn[nH]2)cc1 [Compound 2, 2-n-butyl-4-chloro-1-[(2'-(tetrazol-5-yl)-1,1'-biphenyl-4-yl)-methyl]-1H-imidazole-5-carboxylic acid]
- Antihypertensive Effects in Renal Hypertensives Rats, Intravenous Activity ([4]; intravenous, 3.0 mg/kg or less): + (Significant decrease in blood pressure at 3.0 mg/kg or less)
- Antihypertensive Effects in Renal Hypertensives Rats, Oral Activity ([4]; oral, 30 mg/kg or less): + (Significant decrease in blood pressure at 30 mg/kg or less)

Compound: NS(=O)(=O)c1cc(C(=O)O)c(NCc2ccco2)cc1Cl [furosemide, reference compound]
- Plasma renin activity (PRA) ([1]; dogs (three), furosemide 10 mg/kg im at 18 and 2 hours before, PRA four days earlier 1.5±0.5): 19.9±7.2 ng AI/ml/hr
